Broadly, the IC50 is the concentration that inhibits the measured activity by half.

hMAT2A, sequence (P31153 whole entry): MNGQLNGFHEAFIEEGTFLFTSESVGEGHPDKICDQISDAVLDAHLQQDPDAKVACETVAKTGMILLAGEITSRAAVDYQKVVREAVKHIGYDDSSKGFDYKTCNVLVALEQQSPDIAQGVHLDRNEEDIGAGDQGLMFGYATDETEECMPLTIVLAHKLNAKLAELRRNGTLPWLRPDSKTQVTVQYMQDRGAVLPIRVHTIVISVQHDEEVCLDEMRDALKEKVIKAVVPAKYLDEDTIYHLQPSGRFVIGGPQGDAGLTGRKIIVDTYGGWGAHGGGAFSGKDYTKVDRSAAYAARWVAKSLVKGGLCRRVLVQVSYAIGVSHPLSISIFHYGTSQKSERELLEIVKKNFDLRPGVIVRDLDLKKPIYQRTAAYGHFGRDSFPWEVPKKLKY

The first test addresses hMAT2A (Homo sapiens (Human), UniProt P31153). In words: Phosphate Sensor Fluorescence Assay (MAT2A enzyme inhibition). It counts as biochemical. The note with it: L-methionine 500 uM, ATP 500 uM, class symbols. An outline of the steps:
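Recombinant MAT2A preincubated 15 min at room temperature with compound, then reacted 1 h at room temperature with 500 uM L-methionine and 500 uM ATP in Tris pH 7.5 buffer containing PNP/7-MEG.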
`CNc1nc(=O)n(-c2ccccc2)c2cc(C(F)(F)F)cc(F)c12` [Example 420, 5-fluoro-4-(methylamino)-1-phenyl-7-(trifluoromethyl)hydroquinazolin-2-one] came in with an IC50 of less than 200 nM. Same read-out and setting: the same measure for `Nc1nc(=O)n(-c2ccccc2)c2cc(Br)ccc12` [Example 163, 4-amino-7-bromo-1-phenylhydro-quinazolin-2-one]: less than 200 nM. Still for that read-out and setting: the same measure for `NC1CCN(c2nc(=O)n(-c3ccccc3)c3cc(Cl)ccc23)C1` (stereo not shown) [Example 201, 4-(3-aminopyrrolidin-1-yl)-7-chloro-1-phenylquinazolin-2(1H)-one]: less than 200 nM; for `CNc1nc(=O)n(-c2cnccc2C)c2nc(C(F)(F)F)ccc12` [Example 376]: less than 200 nM. Same read-out and setting: the result for `CNc1nc(=O)n(-c2ccncc2)c2nc(C(F)(F)F)ccc12` [Example 313] reads 500 to 1000 nM. In turn, “4-(3,3-difluoropyrrolidin-1-yl)-7- chloro-1-phenylhydroquinazolin-2-one [Example 207]” had an IC50 of less than 200 nM.

In turn, `Cc1ccccc1-n1c(=O)nc(NCC(F)(F)F)c2ccc(C(F)(F)F)cc21` [Example 126, 1-(2-methylphenyl)-4-[(2,2,2-trifluoro-ethyl)amino]-7-(trifluoromethyl)hydro-quinazolin-2-one] had an IC50 of less than 200 nM. On the same count and under the same terms, the result for `O=c1nc(N[C@H]2C[C@H]2F)c2ccc(C(F)(F)F)cc2n1-c1ccccc1` [Example 424, 4-(((1S,2R)-2-fluorocyclopropyl)amino)-1-phenyl-7-(trifluoromethyl)quinazolin-2(1H)-one] reads less than 200 nM; that for `CN(C)C(=O)C1CN(c2nc(=O)n(-c3ccccc3)c3cc(Cl)ccc23)C1` [Example 159, [1-(7-chloro-2-oxo-1-phenylhydro-quinazolin-4-yl)azetidin-3-yl]-N,N-dimethylcarboxamide], less than 200 nM. The same measure, in the same setting: the same measure for `C#Cc1ccc2c(NC)nc(=O)n(-c3ccccc3)c2c1` [Example 394, 7-ethynyl-4-(methylamino)-1-phenyl-hydroquinazolin-2-one]: less than 200 nM; for `O=c1nc(N2CC(O)C2)c2ccc(C(F)(F)F)nc2n1-c1ccccc1Cl` [Example 161, 1-(2-chlorophenyl)-4-(3-hydroxy-azetidinyl)-7-(trifluoromethyl)pyrido-[2,3-d]pyrimidin-2(1H)-one]: less than 200 nM. The same measure, in the same setting: the result for `Nc1nc(=O)n(-c2ccccc2Cl)c2cc(C(F)(F)F)ccc12` [Example 99, 4-amino-1-(2-chlorophenyl)-7-(trifluoromethyl)hydroquinazolin-2-one] reads less than 200 nM; that for `CNc1nc(=O)n(-c2cccc(CC(=O)O)c2)c2cc(Cl)ccc12` [Example 419, 2-(3-(7-chloro-4-(methylamino)-2-oxoquinazolin-1(2H)-yl)phenyl)acetic acid], less than 200 nM; that for `NC(=O)CNc1nc(=O)n(-c2ccccc2Cl)c2nc(C(F)(F)F)ccc12` [Example 287, 2-((1-(2-chlorophenyl)-2-oxo-7-(trifluoromethyl)-1,2-dihydropyrido[2,3-d]pyrimidin-4-yl)amino)acetamide], less than 200 nM. The compound `O=c1nc(NC2CCC2)c2ccc(C(F)(F)F)nc2n1-c1ccccc1Cl` [Example 320, 1-(2-chlorophenyl)-4-(cyclobutylamino)-7-(trifluoromethyl)pyrido[2,3-d]-pyrimidin-2(1H)-one] gave an IC50 of less than 200 nM.

`O=c1nc(NC2CC2)c2ccc(C(F)(F)F)nc2n1-c1ccccc1Cl` [Example 308, 1-(2-chlorophenyl)-4-(cyclopropyl-amino)-7-(trifluoromethyl)pyrido[2,3-d]pyrimidin-2(1H)-one]: the IC50 is less than 200 nM. On the same count and under the same terms, the result for `CNc1nc(=O)n(-c2ccccc2Cl)c2nc(C(F)(F)F)ccc12` [Example 178, 1-(2-chlorophenyl)-4-(methylamino)-7-(trifluoromethyl)pyrido[2,3-d]pyrimidin-2(1H)-one] reads less than 200 nM; that for `Nc1nc(=O)n(-c2ccccc2Br)c2cc(Cl)ccc12` [Example 149, 4-amino-1-(2-bromophenyl)-7-chloro-hydroquinazolin-2-one], less than 200 nM.

Consider `CNc1nc(=O)n(-c2ccccc2Cl)c2cc(Cl)ccc12` [Example 218, 7-chloro-1-(2-chlorophenyl)-4-(methylamino)quinazolin-2(1H)-one], for which the half-maximal inhibitory concentration (IC50) was less than 200 nM.

As to `CNc1nc(=O)n(-c2ccccc2Cl)c2cc(C(F)(F)F)ccc12` [Example 102, 1-(2-chlorophenyl)-4-(methylamino)-7-(trifluoromethyl)hydroquinazolin-2-one], the IC50 was less than 200 nM. Same read-out and setting: the result for `C[C@@H]1CCCN1c1nc(=O)n(-c2ccccc2)c2nc(C(F)(F)F)ccc12` [Example 344, 4-((2R)-2-methylpyrrolidin-1-yl)-1-phenyl-7-(trifluoromethyl)pyrido[2,3-d]-pyrimidin-2(1H)-one] reads less than 200 nM; that for `O=c1nc(N2CC[C@@H](O)C2)c2ccc(Cl)cc2n1-c1ccc2nccn2c1` [Example 250, 4-((3R)-3-hydroxypyrrolidin-1-yl)-7-chloro-1-(4-hydroimidazo[1,2-a]pyridin-6-yl)-hydroquinazolin-2-one], 500 to 1000 nM. Take `CNc1nc(=O)n(-c2nccn2C)c2cc(Cl)ccc12` [Example 188]: the half-maximal inhibitory concentration (IC50) lay within 200 to 500 nM. Same read-out and setting: the same measure for `CN(C)c1nc(=O)n(-c2ccccc2Cl)c2nc(C(F)(F)F)ccc12` [Example 244, 1-(2-chlorophenyl)-4-(dimethylamino)-7-(trifluoromethyl)pyrido[2,3-d]-pyrimidin-2(1H)-one]: less than 200 nM; for `CNc1nc(=O)n(-c2ccccc2C)c2cc(Cl)cc(OC)c12` [Example 329, 7-chloro-5-methoxy-4-(methylamino)-1-(2-methylphenyl)hydroquinazolin-2-one]: less than 200 nM. In the case of `O=c1nc(N2CC(O)C2)c2ccc(C3CC3)cc2n1-c1ccccc1` [Example 372, 7-cyclopropyl-4-(3-hydroxyazetidin-1-yl)-1-phenylhydroquinazolin-2-one], the concentration for half-maximal inhibition (IC50) is less than 200 nM. Still for that read-out and setting: the same measure for `COC1CCN(c2nc(=O)n(-c3ccccc3)c3cc(Cl)ccc23)C1` (stereo not shown) [Example 230, 7-chloro-4-(3-methoxypyrrolidin-1-yl)-1-phenylquinazolin-2(1H)-one]: less than 200 nM; for `CNc1nc(=O)n(-c2cc(O)ccc2C)c2cc(Cl)ccc12` [Example 109, 7-chloro-1-(3-hydroxy-6-methylphenyl)-4-(methylamino)hydroquinazolin-2-one]: less than 200 nM; for `CNc1nc(=O)n(-c2cccc(C#N)c2C)c2cc(Cl)ccc12` [Example 173, 3-[7-chloro-4-(methylamino)-2-oxo-hydroquinazolinyl]-2-methylbenzene-carbonitrile]: less than 200 nM.

For the compound `Cc1nc(=O)n(-c2ccccc2)c2cc(Cl)ccc12` [Example 242, 7-chloro-4-methyl-1-phenylhydro-quinazolin-2-one], the half-maximal inhibitory concentration (IC50) lay within 500 to 1000 nM. The same measure, in the same setting: the same measure for `O=c1[nH]c(=O)n(-c2cccnc2)c2cc(C(F)(F)F)ccc12` [Example 362, 1-(pyridin-3-yl)-7-(trifluoromethyl)-1,3-dihydroquinazoline-2,4-dione]: less than 200 nM; for `Cc1ccc2c(N3CC(O)C3)nc(=O)n(-c3ccccc3)c2n1` [Example 384, 4-(3-hydroxyazetidin-1-yl)-7-methyl-1-phenylpyrido[2,3-d]pyrimidin-2(1H)-one]: less than 200 nM; for `C[C@]1(O)C[C@@H](Nc2nc(=O)n(-c3ccccc3Cl)c3nc(C(F)(F)F)ccc23)C1` [Example 268, 1-(2-chlorophenyl)-4-(((1s,3s)-3-hydroxy-3-methylcyclobutyl)amino)-7-(trifluoromethyl)pyrido[2,3-d]pyrimidin-2(1H)-one]: less than 200 nM.

`CC(F)(F)c1ccc2c(NCC3CC3)nc(=O)n(-c3ccccc3Cl)c2c1` [Example 425, 1-(2-chlorophenyl)-4-((cyclopropyl-methyl)amino)-7-(1,1-difluoroethyl)-quinazolin-2(1H)-one] showed an IC50 of less than 200 nM.

The compound `CNc1nc(=O)n(-c2ccccc2OC)c2cc(Cl)ccc12` [Example 226, 7-chloro-1-(2-methoxyphenyl)-4-(methylamino)hydroquinazolin-2-one] yielded an IC50 of less than 200 nM.

Consider `CNc1nc(=O)n(-c2cnccc2Cl)c2nc(C(F)(F)F)ccc12` [Example 377, 1-(4-chloropyridin-3-yl)-4-(methyl-amino)-7-(trifluoromethyl)pyrido[2,3-d]pyrimidin-2(1H)-one], for which the half-maximal inhibitory concentration (IC50) was less than 200 nM.

Still in this test, the particulars now being: L-methionine 500 uM, ATP 500 uM, numeric bound.
Regarding `CNc1nc(=O)n(-c2cnccc2O)c2nc(C(F)(F)F)ccc12` [Example 392, 1-(4-hydroxypyridin-3-yl)-4-(methyl-amino)-7-(trifluoromethyl)pyrido[2,3-d]-pyrimidin-2(1H)-one], the IC50 is more than 10000 nM. Same read-out and setting: the same measure for `O=C1CCN1c1nc(=O)n(-c2ccccc2)c2cc(Cl)ccc12` [Example 206, 7-chloro-4-(2-oxoazetidin-1-yl)-1-phenylhydroquinazolin-2-one]: more than 10000 nM; for `CNc1nc(=O)n(-c2ccccc2)c2cc(Cl)nnc12` [Example 243, 3-chloro-8-(methylamino)-5-phenyl-5-hydropyrimidino[5,4-c]pyridazin-6-one]: more than 10000 nM; for `CC(C)c1nc(=O)n(-c2ccccc2)c2cc(Cl)ccc12` [Example 104, 7-chloro-4-(methylethyl)-1-phenylhydro-quinazolin-2-one]: more than 10000 nM. As to `O=C(O)[C@H]1CCCN1c1nc(=O)n(-c2ccccc2)c2cc(Cl)ccc12` [Example 224, (2R)-1-(7-chloro-2-oxo-1-phenylhydro-quinazolin-4-yl)pyrrolidine-2-carboxylic acid], the IC50 was more than 10000 nM. On to `O=c1[nH]c(=O)n(-c2cccc(C(F)F)c2)c2cc(Cl)ccc12` [Example 354, 7-chloro-1-(3-difluoromethylphenyl)-quinazoline-2,4(1H,3H)-dione], for which the IC50 was more than 10000 nM. The same measure, in the same setting: the result for `CNc1nc(=O)n(-c2ccccc2Cl)c2c(Cl)c(C(F)(F)F)ccc12` [Example 342, 8-chloro-1-(2-chlorophenyl)-4-(methylamino)-7-(trifluoromethyl)-hydroquinazolin-2-one] reads more than 10000 nM.

The values are drawn from patent US11046691B1 (IDEAYA BIOSCIENCES, INC., priority 2018, dated 2021).
